We go through 13 molecules from PubChem BioAssay AID651581 (Sanford-Burnham Center for Chemical Genomics, 2012).

Test [1] has as its target Endothelial PAS domain-containing protein 1 (Homo sapiens) (UniProt Q99814). Nature of the test: potency against HIF reporters across cell lines – luminescence, panel, selectivity assay for HIF-2a inhibitor project, dose response (AID 651581). Particulars: human cell HIF reporter.
The target in test [2] is Hypoxia-inducible factor 1-alpha (Homo sapiens) (UniProt Q16665). The test is described as above. Conditions: human cell HIF reporter, HIF-1a.
Hypoxia-inducible factor 1-alpha (Homo sapiens), sequence (Q16665 whole entry, looked up): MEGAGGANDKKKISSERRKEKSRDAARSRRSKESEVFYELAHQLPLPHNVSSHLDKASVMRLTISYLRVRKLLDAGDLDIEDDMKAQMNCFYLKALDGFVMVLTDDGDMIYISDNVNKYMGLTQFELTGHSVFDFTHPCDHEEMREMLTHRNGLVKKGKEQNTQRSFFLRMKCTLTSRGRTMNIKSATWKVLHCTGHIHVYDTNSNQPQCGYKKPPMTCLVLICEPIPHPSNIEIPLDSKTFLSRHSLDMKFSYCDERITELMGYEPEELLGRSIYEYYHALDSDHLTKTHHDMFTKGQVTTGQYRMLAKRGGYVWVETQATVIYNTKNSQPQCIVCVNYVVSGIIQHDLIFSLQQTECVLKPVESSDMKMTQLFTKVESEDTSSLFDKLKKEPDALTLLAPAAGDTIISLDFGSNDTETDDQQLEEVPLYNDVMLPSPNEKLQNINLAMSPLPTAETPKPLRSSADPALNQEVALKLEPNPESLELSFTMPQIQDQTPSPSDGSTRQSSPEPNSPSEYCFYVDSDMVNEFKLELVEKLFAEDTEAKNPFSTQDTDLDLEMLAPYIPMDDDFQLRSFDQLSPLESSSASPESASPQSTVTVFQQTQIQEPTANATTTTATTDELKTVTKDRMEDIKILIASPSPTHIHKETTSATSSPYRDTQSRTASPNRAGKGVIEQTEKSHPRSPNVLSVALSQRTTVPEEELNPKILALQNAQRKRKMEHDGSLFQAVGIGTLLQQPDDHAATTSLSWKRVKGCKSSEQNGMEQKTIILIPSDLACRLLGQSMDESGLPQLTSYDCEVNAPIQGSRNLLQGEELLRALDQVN

Calls of active or inactive are those of the source. How the calls were made is not given here.

In the case of `Cc1ccc(-n2nc3ccc(N)cc3n2)c(C)c1`, the IC50 result in test [1] (HIF-2a PANC, mean of runs) was “inactive”. Moreover, the IC50 is 1.69 µM in test [1] (HIF-2a PANC, run 1); 3.51 µM in test [1] (HIF-2a PANC, run 2); 0.452 µM in test [1] (HIF-2a, mean of runs); 0.456 µM in test [1] (HIF-2a, run 1); 0.448 µM in test [1] (HIF-2a, run 2); above 99 µM in test [2] (run 1). The IC50 in test [2] (run 2) is above 99 µM.
In the case of `COc1cc(N2C(=O)C=CC2=O)c(OC)cc1Cl`, the IC50 result in test [1] (HIF-2a PANC, mean of runs) is “inactive”. Also, the IC50 was 38.5 µM in test [1] (HIF-2a PANC, run 1); 45.2 µM in test [1] (HIF-2a PANC, run 2); 8.55 µM in test [1] (HIF-2a, mean of runs); 8.69 µM in test [1] (HIF-2a, run 1); 8.4 µM in test [1] (HIF-2a, run 2); 36.8 µM in test [2] (mean of runs). Moreover, the concentration for half-maximal inhibition (IC50) was determined as 33.2 µM in test [2] (run 1) and 40.4 µM in test [2] (run 2).
In the case of `COc1cccc(C(=O)C(C#N)=C(SC)SC)c1`, the IC50 entry in test [1] (HIF-2a PANC, mean of runs) was “inactive”. In addition, the half-inhibitory concentration (IC50) in test [1] (HIF-2a PANC, run 1) is 47.8 µM; in test [1] (HIF-2a PANC, run 2) it was 47.4 µM; in test [1] (HIF-2a, mean of runs), 5.75 µM; in test [1] (HIF-2a, run 1), 5.91 µM; in test [1] (HIF-2a, run 2) it was 5.59 µM; in test [2] (mean of runs), 18.2 µM. The values for the IC50 in test [2] (run 1) and in test [2] (run 2) were 23.4 µM and 13.1 µM, respectively.
For the molecule `Cc1nc2cc(-c3cccc(F)c3)nn2c(C)c1CCC(=O)NC(C)c1ccc2c(c1)OCCO2` (stereo not given), the IC50 result in test [1] (HIF-2a PANC, mean of runs) was “inactive”. Further, the IC50 in test [1] (HIF-2a PANC, run 1) is 41.1 µM; in test [1] (HIF-2a PANC, run 2), 11.9 µM; in test [1] (HIF-2a, mean of runs) it was 4.38 µM; in test [1] (HIF-2a, run 1), 4.45 µM; in test [1] (HIF-2a, run 2), 4.31 µM; in test [2] (mean of runs) it was 18.6 µM. In addition, the IC50 is 19.2 µM in test [2] (run 1) and 18 µM in test [2] (run 2).
With `COC(=O)c1ccc(C(=O)OC)c(-n2c(=O)c3ccccc3c3ccccc3c2=O)c1`, the IC50 is > 99 µM (inactive) in test [1] (HIF-2a PANC, mean of runs); above 99 µM in test [1] (HIF-2a PANC, run 1); above 99 µM in test [1] (HIF-2a PANC, run 2); 25.7 µM in test [1] (HIF-2a, run 1); 25.2 µM in test [1] (HIF-2a, run 2); 38.2 µM in test [2] (run 1). Also, the IC50 in test [2] (run 2) worked out at 42.4 µM. Further, the IC50 entry was “inactive” in test [1] (HIF-2a, mean of runs) and “inactive” in test [2] (mean of runs).
`Cc1ccc(S(=O)(=O)Nc2cccc3cccnc23)cc1`: the IC50 in test [1] (HIF-2a PANC, mean of runs) was > 99 µM (inactive); in test [1] (HIF-2a PANC, run 1), above 99 µM; in test [1] (HIF-2a PANC, run 2), above 99 µM; in test [1] (HIF-2a, mean of runs), 1.12 µM; in test [1] (HIF-2a, run 1) it was 1.15 µM; in test [1] (HIF-2a, run 2), 1.09 µM. In addition, the concentration for half-maximal inhibition (IC50) in test [2] (run 1) and in test [2] (run 2) was above 99 µM in each case.
For the molecule `O=C(CSc1nnc(-c2ccc(Br)cc2)o1)Nc1cccc(C(=O)O)c1`, the IC50 is > 99 µM (inactive) in test [1] (HIF-2a PANC, mean of runs); above 99 µM in test [1] (HIF-2a PANC, run 1); above 99 µM in test [1] (HIF-2a PANC, run 2); 9.73 µM in test [1] (HIF-2a, mean of runs); 10.4 µM in test [1] (HIF-2a, run 1); 9.1 µM in test [1] (HIF-2a, run 2). In addition, the IC50 in test [2] (run 1) and in test [2] (run 2) was above 99 µM throughout.
In the case of `CCS(=O)(=O)c1ncc(Cl)c(C(=O)Nc2ccc(C)cc2)n1`, the IC50 in test [1] (HIF-2a PANC, mean of runs) was 30.5 µM; in test [1] (HIF-2a PANC, run 1), 30.4 µM; in test [1] (HIF-2a PANC, run 2), 30.7 µM; in test [1] (HIF-2a, run 1) it was 10.8 µM; in test [1] (HIF-2a, run 2), 9.79 µM; in test [2] (run 1) it was 23.9 µM. Moreover, the IC50 in test [2] (run 2) worked out at 20 µM. Further, the IC50 result was “inactive” in test [1] (HIF-2a, mean of runs) and “inactive” in test [2] (mean of runs).
In the case of `NNC(=O)c1cccc(COc2ccc3c(c2)CCC3)c1`, the IC50 in test [1] (HIF-2a PANC, mean of runs) was > 99 µM (inactive); in test [1] (HIF-2a PANC, run 1) it was above 99 µM; in test [1] (HIF-2a PANC, run 2), above 99 µM; in test [1] (HIF-2a, mean of runs) it was < 30 µM (inactive); in test [1] (HIF-2a, run 1), below 30 µM; in test [1] (HIF-2a, run 2), below 30 µM. Moreover, the IC50 in test [2] (run 1) and in test [2] (run 2) was above 99 µM in each case.
As to `CCc1ccc(S(=O)(=O)ON2C(=O)c3ccccc3C2=O)cc1`, the IC50 in test [1] (HIF-2a PANC, run 1) was 53.4 µM; in test [1] (HIF-2a PANC, run 2), above 99 µM; in test [1] (HIF-2a, run 1), 10.6 µM; in test [1] (HIF-2a, run 2) it was 9.59 µM; in test [2] (run 1), 25.1 µM; in test [2] (run 2), above 99 µM. Moreover, the IC50 result in test [1] (HIF-2a, mean of runs) was “inactive”.
Consider `CCOc1ccc(OCc2cccc(C(=O)N/N=C/c3cccnc3)c2)cc1`, for which the IC50 result in test [1] (HIF-2a PANC, mean of runs) is “inactive”. For the same molecule, the IC50 in test [1] (HIF-2a PANC, run 1) was 16.7 µM; in test [1] (HIF-2a PANC, run 2) it was 12 µM; in test [1] (HIF-2a, mean of runs), 2.03 µM; in test [1] (HIF-2a, run 1) it was 2.13 µM; in test [1] (HIF-2a, run 2) it was 1.94 µM; in test [2] (run 1), above 99 µM. In test [2] (run 2), this molecule returned an IC50 above 99 µM.
Take `Cc1nc(SCc2ccc(C(=O)O)cc2)nc2c1CCCC2`: the IC50 entry in test [1] (HIF-2a PANC, mean of runs) was “inactive”; in test [2] (mean of runs), “inactive”. Further, the IC50 in test [1] (HIF-2a PANC, run 1) was 20.8 µM; in test [1] (HIF-2a PANC, run 2), 23.6 µM; in test [1] (HIF-2a, mean of runs), 4.53 µM; in test [1] (HIF-2a, run 1), 4.31 µM; in test [1] (HIF-2a, run 2) it was 4.75 µM; in test [2] (run 1), 12.3 µM. This molecule registered an IC50 in test [2] (run 2) of 7.67 µM.
For `Cc1c(CCC(=O)N2CCC(C(=O)O)(c3ccccc3)CC2)c(=O)oc2cc3oc4c(c3cc12)CCCC4`, the half-maximal inhibitory concentration (IC50) is 3.13 µM in test [1] (HIF-2a PANC, mean of runs); 3.77 µM in test [1] (HIF-2a PANC, run 1); 2.49 µM in test [1] (HIF-2a PANC, run 2); 1.41 µM in test [1] (HIF-2a, mean of runs); 1.57 µM in test [1] (HIF-2a, run 1); 1.24 µM in test [1] (HIF-2a, run 2). The concentration for half-maximal inhibition (IC50) in test [2] (mean of runs) is 5.97 µM; in test [2] (run 1), 7.31 µM; in test [2] (run 2) it was 4.63 µM.

As usually defined, the IC50 is the concentration needed to halve the response being measured.
